Source: PubChem BioAssay (NCI)
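Values below derive from 48-hour exposures of cells grown in 96-well plates, with endpoints linearly interpolated between the two concentrations bracketing the appropriate inhibition level. Here, GI50 denotes the concentration required for 50% inhibition of growth. TGI: total growth inhibition.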

What was measured:
Assay in all cases: inhibition of tumour cell growth, NCI panel, 48 h
[1] = system: 786-0 renal
[2] = system: A498 renal
[3] = system: A549 NSCLC
[4] = system: ACHN renal
[5] = system: BT-549 breast
[6] = system: CAKI-1 renal
[7] = system: CCRF-CEM leukemia
[8] = system: COLO 205 colon
[9] = system: DU-145 prostate
[10] = system: EKVX NSCLC
[11] = system: HCC-2998 colon
[12] = system: HCT-116 colon
[13] = system: HCT-15 colon
[14] = system: HL-60(TB) leukemia
[15] = system: HOP-62 NSCLC
[16] = system: HOP-92 NSCLC
[17] = system: HS 578T breast
[18] = system: HT29 colon
[19] = system: IGROV1 ovarian
[20] = system: K-562 leukemia
[21] = system: KM12 colon
[22] = system: LOX IMVI melanoma
[23] = system: M14 melanoma
[24] = system: MALME-3M melanoma
[25] = system: MCF7 breast
[26] = system: MDA-MB-231 breast
[27] = system: MDA-MB-435
[28] = system: MOLT-4 leukemia
[29] = system: NCI-H226 lung
[30] = system: NCI-H23 lung
[31] = system: NCI-H460 lung
[32] = system: NCI-H522 lung
[33] = system: NCI/ADR-RES ovarian
[34] = system: OVCAR-3 ovarian
[35] = system: OVCAR-4 ovarian
[36] = system: OVCAR-5 ovarian
[37] = system: OVCAR-8 ovarian
[38] = system: PC-3 prostate
[39] = system: RPMI-8226 leukemia
[40] = system: RXF 393 renal
[41] = system: SF-268 CNS
[42] = system: SF-295 CNS
[43] = system: SF-539 CNS
[44] = system: SK-MEL-2 melanoma
[45] = system: SK-MEL-28 melanoma
[46] = system: SK-MEL-5 melanoma
[47] = system: SK-OV-3 ovarian
[48] = system: SN12C renal
[49] = system: SNB-19 CNS
[50] = system: SNB-75 CNS
[51] = system: SR leukemia
[52] = system: SW-620 colon
[53] = system: T-47D breast
[54] = system: TK-10 renal
[55] = system: U251 CNS
[56] = system: UACC-257 melanoma
[57] = system: UACC-62 melanoma
[58] = system: UO-31 renal

`C#CCNCCCN1C(=O)c2ccc3c4c(ccc(c24)C1=O)C(=O)N(CCCNCC#C)C3=O` was tested. Which GI50 [1] did it give?
Its GI50 is 778 nM.

And the TGI [1]?
Its TGI is 5360 nM.

And the GI50 [2]?
The GI50 was 312 nM.

And the TGI [2]?
The TGI was 1410 nM.

What about the GI50 [3] of the same molecule?
The GI50 was 134 nM.

What about the TGI [3] of the same molecule?
The TGI was 393 nM.

And the GI50 [4]?
The GI50 was 144 nM.

What about the TGI [4] of the same molecule?
The TGI was 1740 nM.

And the GI50 [5]?
Its GI50 is 1440 nM.

And the TGI [5]?
Its TGI is 2890 nM.

And the GI50 [6]?
The GI50 was 237 nM.

And the TGI [6]?
Its TGI is 955 nM.

And the GI50 [7]?
The GI50 was 295 nM.

What about the TGI [7] of the same molecule?
The TGI was 2890 nM.

And the GI50 [8]?
Its GI50 is 91.1 nM.

What about the TGI [8] of the same molecule?
Its TGI is 238 nM.

What about the GI50 [9] of the same molecule?
The GI50 was 219 nM.

What about the TGI [9] of the same molecule?
Its TGI is 600 nM.

And the GI50 [10]?
The GI50 was 302 nM.

And the TGI [10]?
Its TGI is 1130 nM.

And the GI50 [11]?
The GI50 was 242 nM.

What about the TGI [11] of the same molecule?
Its TGI is 766 nM.

And the GI50 [12]?
The GI50 was 157 nM.

What about the TGI [12] of the same molecule?
The TGI was 1950 nM.

What about the GI50 [13] of the same molecule?
Its GI50 is 206 nM.

And the TGI [13]?
Its TGI is 809 nM.

What about the GI50 [14] of the same molecule?
The GI50 was 305 nM.

And the TGI [14]?
Its TGI is 988 nM.

And the GI50 [15]?
Its GI50 is 267 nM.

And the TGI [15]?
Its TGI is 1560 nM.

What about the GI50 [16] of the same molecule?
The GI50 was 1790 nM.

What about the TGI [16] of the same molecule?
Its TGI is 7740 nM.

What about the GI50 [17] of the same molecule?
Its GI50 is 919 nM.

What about the TGI [17] of the same molecule?
Its TGI is 4760 nM.

And the GI50 [18]?
The GI50 was 76.6 nM.

What about the TGI [18] of the same molecule?
Its TGI is 539 nM.

And the GI50 [19]?
Its GI50 is 187 nM.

What about the TGI [19] of the same molecule?
The TGI was 972 nM.

What about the GI50 [20] of the same molecule?
Its GI50 is 230 nM.

And the TGI [20]?
Its TGI is 1630 nM.

What about the GI50 [21] of the same molecule?
The GI50 was 284 nM.

What about the TGI [21] of the same molecule?
Its TGI is 1330 nM.

What about the GI50 [22] of the same molecule?
Its GI50 is 205 nM.

And the TGI [22]?
Its TGI is 637 nM.

What about the GI50 [23] of the same molecule?
The GI50 was 317 nM.

And the TGI [23]?
The TGI was 987 nM.

What about the GI50 [24] of the same molecule?
Its GI50 is 158 nM.

And the TGI [24]?
The TGI was 373 nM.

And the GI50 [25]?
Its GI50 is 132 nM.

And the TGI [25]?
The TGI was 328 nM.

What about the GI50 [26] of the same molecule?
Its GI50 is 670 nM.

And the TGI [26]?
The TGI was 5920 nM.

And the GI50 [27]?
The GI50 was 189 nM.

And the TGI [27]?
Its TGI is 404 nM.

And the GI50 [28]?
Its GI50 is 188 nM.

And the TGI [28]?
The TGI was 869 nM.

What about the GI50 [29] of the same molecule?
Its GI50 is 151 nM.

What about the TGI [29] of the same molecule?
The TGI was 551 nM.

And the GI50 [30]?
The GI50 was 220 nM.

And the TGI [30]?
Its TGI is 669 nM.

What about the GI50 [31] of the same molecule?
Its GI50 is 101 nM.

And the TGI [31]?
Its TGI is 363 nM.

And the GI50 [32]?
The GI50 was 251 nM.

And the TGI [32]?
The TGI was 841 nM.

What about the GI50 [33] of the same molecule?
The GI50 was 467 nM.

And the TGI [33]?
The TGI was 3810 nM.

What about the GI50 [34] of the same molecule?
Its GI50 is 277 nM.

And the TGI [34]?
Its TGI is 957 nM.

What about the GI50 [35] of the same molecule?
Its GI50 is 137 nM.

And the TGI [35]?
The TGI was 279 nM.

And the GI50 [36]?
The GI50 was 534 nM.

What about the TGI [36] of the same molecule?
The TGI was 2610 nM.

And the GI50 [37]?
The GI50 was 180 nM.

What about the TGI [37] of the same molecule?
Its TGI is 1550 nM.

What about the GI50 [38] of the same molecule?
The GI50 was 463 nM.

And the TGI [38]?
Its TGI is 4410 nM.

And the GI50 [39]?
Its GI50 is 404 nM.

And the TGI [39]?
Its TGI is 4180 nM.

What about the GI50 [40] of the same molecule?
The GI50 was 228 nM.

What about the TGI [40] of the same molecule?
The TGI was 1070 nM.

And the GI50 [41]?
Its GI50 is 404 nM.

What about the TGI [41] of the same molecule?
Its TGI is 3050 nM.

What about the GI50 [42] of the same molecule?
The GI50 was 119 nM.

And the TGI [42]?
Its TGI is 514 nM.

And the GI50 [43]?
The GI50 was 470 nM.

What about the TGI [43] of the same molecule?
Its TGI is 1750 nM.

What about the GI50 [44] of the same molecule?
Its GI50 is 244 nM.

What about the TGI [44] of the same molecule?
Its TGI is 729 nM.

What about the GI50 [45] of the same molecule?
Its GI50 is 613 nM.

And the TGI [45]?
Its TGI is 2160 nM.

And the GI50 [46]?
The GI50 was 140 nM.

What about the TGI [46] of the same molecule?
The TGI was 274 nM.

What about the GI50 [47] of the same molecule?
The GI50 was 645 nM.

What about the TGI [47] of the same molecule?
Its TGI is 4320 nM.

What about the GI50 [48] of the same molecule?
Its GI50 is 214 nM.

What about the TGI [48] of the same molecule?
The TGI was 949 nM.

What about the GI50 [49] of the same molecule?
Its GI50 is 328 nM.

What about the TGI [49] of the same molecule?
The TGI was 1450 nM.

And the GI50 [50]?
Its GI50 is 451 nM.

And the TGI [50]?
The TGI was 1690 nM.

What about the GI50 [51] of the same molecule?
Its GI50 is 219 nM.

And the TGI [51]?
The TGI was 1040 nM.

What about the GI50 [52] of the same molecule?
The GI50 was 154 nM.

And the TGI [52]?
Its TGI is 992 nM.

What about the GI50 [53] of the same molecule?
The GI50 was 1020 nM.

And the TGI [53]?
The TGI was 3900 nM.

And the GI50 [54]?
The GI50 was 689 nM.

And the TGI [54]?
Its TGI is 6880 nM.

What about the GI50 [55] of the same molecule?
Its GI50 is 223 nM.

What about the TGI [55] of the same molecule?
Its TGI is 1020 nM.

What about the GI50 [56] of the same molecule?
Its GI50 is 181 nM.

And the TGI [56]?
Its TGI is 342 nM.

And the GI50 [57]?
Its GI50 is 384 nM.

And the TGI [57]?
Its TGI is 1070 nM.

And the GI50 [58]?
The GI50 was 260 nM.

And the TGI [58]?
The TGI was 1380 nM.
